Measurements taken from US7018839B2 (priority 1996, dated 2006).
No end group written: not given here.

Key:
[1] = system: hippocampal cells in organotypic cultures; assay: Organotypic hippocampal tissue culture toxicity (trypan blue, LDH, AChE immunocytochemistry); assay type: cell-based, rats; conditions: for cellular damage in hippocampal sections compared to control samples: semi-acute application for 1 hour, AChE-peptide and/or NMDA
Procedure: The organotype tissue culture technique requires postnatal (day 5–7) rats given terminal anaesthesia followed by decapitation. Sections of hippocampus, 400 μm thick, are prepared and then plated on a plasma/thrombin clot. A serum-based media is added to these cultures, which can then be maintained at constant temperature (35° C.) for up to 21 days. After each study, cultures are stained with trypan blue to assess cell viability, in addition, after every removal of serum media, cultures are assayed for lactate dehydrogenase (LDH—a soluble cytoplasmic enzyme used as an index of cellular damage).
Following chronic studies (cultures are maintained for 21 days and treated with AChE-peptide and/or NMDA every 3–4 days), cultured cells are immunocytochemically stained for acetylcholinesterase in order to assess what action, if any, the AChE-peptide has on cell number.

[2] = system: neurons in the substantia nigra
anti-peptide antibody = assay: Competition assay for binding of antibody to immobilised AChE-peptide; parameters: species or system Rabbits; conditions: competitor preincubated with antibody in solution; APP and BuChE peptide at even excessive doses
Procedure: In order to be sure that the antibody recognition of peptides occurs without the possible distortion due to the binding of the peptide to a charged plastic surface, an assay was used in which the critical interaction is studied in solution. […] An aliquot of the antibody was preincubated with potential competitors for binding to the AChE-peptide before presenting the resulting mixture to the peptide bound to the well.

substantia nigra = assay: Behavioural studies: infusion into one substantia nigra, amphetamine challenge, circling; assay type: in vivo, rats; conditions: infused unilaterally into the substantia nigra
Procedure: In these experiments, rats were chronically implanted with a cannula in one substantia nigra and left to recover. After a period of about 3 days, they were infused with either a saline control solution, or a solution containing the 14-mer AChE peptide of the invention at a dose of 1 μl of 10^−5M. After a single infusion, they were challenged daily with a systemic application of amphetamine for the subsequent 10 days.

Q: Which “cellular damage in hippocampal sections compared to control samples” value [1] does the source give for CN[C@H](CC(=O)O)C(=O)O [NMDA, N-methyl-D-aspartate, reference compound] here?
A: extensive cellular damage

Q: AEFHRWSSYMVHWK [AChE peptide] was tested. Which “state of the cell on application of NMDA after peptide treatment” value [2] did it give?
A: severe metabolic stress of the cell

Q: And the “LDH assays (biochemical studies)” value ([1]; chronic cultures, 21 days, treated every 3–4 days)?
A: support the proposed toxic action

Q: What about the toxicity detected histochemically ([1]; culture period of three weeks) of the same compound?
A: Toxic effects are also detectable

Q: What about the “interaction with excito-toxic effects of NMDA” value ([1]; organotypic cultures) of the same compound?
A: synergistic

Q: What about the “time of application until effect can be seen” value ([1]; organotypic cultures) of the same compound?
A: one

Q: What about the “toxic effects on hippocampal cells” value ([1]; organotypic cultures) of the same compound?
A: direct toxic effects

Q: And the “cellular damage in hippocampal sections compared to control samples” value [1]?
A: extensive cellular damage

Q: For AGFHRWNNYMMDWK [BuChE peptide], which “calcium channel opening activity” value [2] is on record?
A: inactive

Q: What about the “effect of the fragment alone on calcium potentials” value [2] of the same compound?
A: without corresponding effect

Q: And the “effect on the activity of the AChE fragment” value [2]?
A: inactive

Q: And the “competition for the binding of antibody to immobilised AChE-peptide” value (anti-peptide antibody)?
A: could not compete

Q: Which “circling behaviour (activity of the nigrostriatal pathway)” value (substantia nigra) does the source give for acetylcholinesterase [AChE] here?
A: long-term increase in circling behaviour

Q: Which “competition for the binding of antibody to immobilised AChE-peptide” value (anti-peptide antibody) does the source give for recombinant AChE here?
A: effective competitor
